Columns and labels:
Test in all cases: relative viability (nuclei count vs DMSO), 5 days (fraction); higher = more cells survive
AZD8055 + Bortezomib = compound: COc1ccc(-c2ccc3c(N4CCOC[C@@H]4C)nc(N4CCOC[C@@H]4C)nc3n2)cc1CO [AZD8055] + CC(C)C[C@H](NC(=O)[C@H](Cc1ccccc1)NC(=O)c1cnccn1)B(O)O [Bortezomib] (partner 0.002 µM)
How it was run: (§1)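 After 5 days of treatment, lung cancer cells in 1536-well plates were fixed and stained in a single step (final 0.05% Triton X-100, 1% formaldehyde, 1 ug/ml Hoechst) and their nuclei counted on 4× images. Treatment had been applied by pin tool the day after seeding as one drug alone or as a fixed anchor-drug dose with five library-drug doses (not always all listed) in √10 steps. Relative viability is the nuclei count of treated wells divided by that of vehicle wells, and values are medians of duplicate plates.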

AZD8055 + Dasatinib = compound: COc1ccc(-c2ccc3c(N4CCOC[C@@H]4C)nc(N4CCOC[C@@H]4C)nc3n2)cc1CO [AZD8055] + Cc1nc(Nc2ncc(C(=O)Nc3c(C)cccc3Cl)s2)cc(N2CCN(CCO)CC2)n1 [Dasatinib] (partner 0.075 µM)
How it was run: as §1

AZD8055 + Luminespib = compound: COc1ccc(-c2ccc3c(N4CCOC[C@@H]4C)nc(N4CCOC[C@@H]4C)nc3n2)cc1CO [AZD8055] + CCNC(=O)c1noc(-c2cc(C(C)C)c(O)cc2O)c1-c1ccc(CN2CCOCC2)cc1 [Luminespib] (partner 0.01 µM)
How it was run: as §1

AZD8055 + Palbociclib = compound: COc1ccc(-c2ccc3c(N4CCOC[C@@H]4C)nc(N4CCOC[C@@H]4C)nc3n2)cc1CO [AZD8055] + CC(=O)c1c(C)c2cnc(Nc3ccc(N4CCNCC4)cn3)nc2n(C2CCCC2)c1=O [Palbociclib] (partner 0.5 µM)
How it was run: as §1

Cell Line | relative viability (AZD8055 + Bortezomib; first compound 0.01 µM) | relative viability (AZD8055 + Bortezomib; first compound 0.03162 µM) | relative viability (AZD8055 + Bortezomib; first compound 0.1 µM) | relative viability (AZD8055 + Bortezomib; first compound 0.3162 µM) | relative viability (AZD8055 + Bortezomib; first compound 1 µM) | relative viability (AZD8055 + Dasatinib; first compound 0.01 µM) | relative viability (AZD8055 + Dasatinib; first compound 0.03162 µM) | relative viability (AZD8055 + Dasatinib; first compound 0.1 µM) | relative viability (AZD8055 + Dasatinib; first compound 0.3162 µM) | relative viability (AZD8055 + Dasatinib; first compound 1 µM) | relative viability (AZD8055 + Luminespib; first compound 0.01 µM) | relative viability (AZD8055 + Luminespib; first compound 0.03162 µM) | relative viability (AZD8055 + Luminespib; first compound 0.1 µM) | relative viability (AZD8055 + Luminespib; first compound 0.3162 µM) | relative viability (AZD8055 + Luminespib; first compound 1 µM) | relative viability (AZD8055 + Palbociclib; first compound 0.01 µM) | relative viability (AZD8055 + Palbociclib; first compound 0.03162 µM) | relative viability (AZD8055 + Palbociclib; first compound 0.1 µM) | relative viability (AZD8055 + Palbociclib; first compound 0.3162 µM) | relative viability (AZD8055 + Palbociclib; first compound 1 µM)
PC-3 [JPC-3] | 0.911 | 0.872 | 0.83 | 0.687 | 0.555 | 1.01 | 0.937 | 0.946 | 0.641 | 0.444 | 0.717 | 0.565 | 0.693 | 0.469 | 0.332 | 0.515 | 0.557 | 0.516 | 0.435 | 0.458
HARA | 1.12 | 1.23 | 1.11 | 0.725 | 0.54 | 0.282 | 0.294 | 0.221 | 0.155 | 0.221 | 1.44 | 0.584 | 0.393 | 0.112 | 0.12 | 0.223 | 0.234 | 0.216 | 0.255 | 0.171
NCI-H2126 | 1.14 | 1.08 | 1.05 | 0.676 | 0.638 | 0.535 | 0.5 | 0.464 | 0.281 | 0.316 | 0.921 | 0.884 | 0.484 | 0.308 | 0.312 | 0.323 | 0.329 | 0.362 | 0.284 | 0.323
LXF-289 | 1.06 | 0.982 | 0.951 | 0.682 | 0.756 | 0.191 | 0.222 | 0.192 | 0.118 | 0.109 | 0.715 | 0.599 | 0.623 | 0.309 | 0.32 | 0.621 | 0.581 | 0.578 | 0.3 | 0.23
NCI-H460 | 1.25 | 0.79 | 0.44 | 0.195 | 0.0935 | 0.554 | 0.365 | 0.213 | 0.0862 | 0.0669 | 0.03 | 0.029 | 0.0182 | 0.0223 | 0.0329 | 0.154 | 0.108 | 0.0839 | 0.0295 | 0.0277
NCI-H2009 | 1.14 | 0.649 | 0.845 | 0.35 | 0.264 | 0.301 | 0.245 | 0.232 | 0.175 | 0.184 | 1.07 | 1.07 | 1.16 | 0.887 | 0.378 | 0.227 | 0.156 | 0.203 | 0.178 | 0.149

Source: the supplement of paper PMC10307832
